Test [1] concerns Jurkat cells. Briefly: Nuclear fragmentation in Jurkat cells (Syto16 staining). The format is cell-based. The settings on record: 5 μM, 24 h. As for the experimental part: The ability of 5-chloro-3-methyl-indole-2-carboxylic acid (4-nitrobenzylidene)-hydrazide to induce nuclear fragmentation, an indicator of apoptosis, was tested by treatment of Jurkat cells with the test compound followed by staining of the nucleus with Syto16, a fluorescent DNA dye (Molecular Probes, Eugene, Oreg.). The nuclei of Jurkat cells treated with vehicle control (DMSO) are seen to be round with dispersed chromatin that is moderately stained with Syto16 (FIG. 1A).

In test [2] the test system is Jurkat cells. Briefly: Mitotic arrest in Jurkat cells (mitotic figures, Syto 16). The format is cell-based. The note with it: Homo sapiens, 6 h. As for the experimental part: Jurkat cells were incubated with a range of concentrations of 5-chloro-3-methyl-indole-2-carboxylic acid (4-nitrobenzylidene)-hydrazide (0.02 μM to 5 μM) for 6 h under normal growth conditions; control cultures were treated with DMSO vehicle. The cells were then treated for 20 min. with 800 nM Syto 16 (Molecular Probes, Eugene, Oreg.). Cytospin preparations were then prepared and the samples were viewed by fluorescent microscopy using a fluorescein filter set. For each concentration of test compound, the number of mitotic figures were counted and expressed as a percentage of the total number of cells. Three fields from each condition were evaluated and the mean and SEM were calculated and plotted as a function of drug concentration (FIG. 2).

The subject of test [3] is HeLa cells. Kind of test: Clonogenic survival of HeLa cells. The format is cell-based. The settings on record: Homo sapiens. As for the experimental part: HeLa cells were grown according to media component mixtures designated by American Type Culture Collection +10% FCS (Invitrogen Corporation, Life Technologies division), in a 5% CO2-95% humidity incubator at 37° C. In a well of a 96 well plate, 30,000 cells were seeded and treated with testing compound at the indicated concentrations for 48 hr in a 5% CO2-95% humidity incubator at 37° C. Control wells were treated with the same amount of solvent (DMSO) as the compound samples. After the indicated treatment time, the supernatant was removed to a sterile culture tube and the wells washed with phosphate buffered saline, and the adherent cells trypsinized for 5 min. The trypsinzed cells were added to the culture supernatant, cells were collected (1,200 rpm, 10 min), washed with phosphate buffered saline, and resupended in fresh media. The cells were counted for trypan blue negative cells, and the cells diluted with fresh media to 1,000 cells/ml. To a well of a 24-well plate, 0.1 ml of the cell suspension was added along with 1 ml of fresh media (cell suspensions were passed through a 22G needle several times just before plating to form single cell suspensions). Plates are incubated in a 5% CO2-95% humidity incubator at 37° C. for 5-7 days. Colonies are counted when the sizes reached greater than 50 cells per colony. Cells are washed with phosphate buffered saline, fixed with 100% methanol for 15 min, and then stained with 0.5% gentian violet for 15 min. Colonies are rinsed with water and the colonies counted and the fraction surviving expressed as the percentage of the number of control colonies.

For test [4], the system named is T47D cells. Briefly: Cell cycle arrest and apoptosis in T47D cells (propidium iodide flow cytometry). The format is cell-based, Human. The settings on record: 10 μM, 48 h. As to the method:
T47D, a breast cancer cell line, was maintained and harvested as described in Example 1. 1×10^6 Cells were treated with 10 μM of 5-chloro-3-methyl-indole-2-carboxylic acid (4-nitrobenzylidene)-hydrazide for 48 h at 37° C. As a control, cells were also incubated with equivalent amount of solvent (DMSO). Cells were harvested at 1,200 rpm and washed twice with 5 mM EDTA/PBS. Cells were then resuspended in 300 μl EDTA/PBS and 700 μl of 100% ethanol, vortexed and incubated at room temperature for 1 h. Samples were spun down at 1,200 rpm for 5 min and the supernatant was removed. A solution containing 100 μg/ml of propidium iodide and 1 mg/ml of RNAse A (fresh) was added to the samples and incubated for 1 h at room temperature. Samples were then transferred to 12×75 mm polystyrene tubes and analyzed on a flow cytometer. All flow cytometry analyses were performed on FACScalibur (Becton Dickinson) using Cell Quest analysis software. The x-axis plotted the amount of fluorescence and the y-axis is plotted the number of cells with the indicated fluorescence. […] An increase in the sub-diploid DNA content of cells (marker M1 region, FIG. 3) is also seen to increase from 2% to 25% with compound treatment. The sub-diploid amount of DNA (M1) is indicative of apoptotic cells which have undergone DNA degradation or fragmentation.
In general terms: In flow cytometry, cells or beads pass a laser one at a time.

For test [5], the system named is T-47D. Briefly: Caspase cascade activation (N-(Ac-DEVD)-N'-ethoxycarbonyl-R110 fluorogenic substrate) in T-47D cells. The format is cell-based, Human. The note with it: 24 h incubation with compound. As to the method: Human breast cancer cell lines T-47D and ZR-75-1 were grown according to media component mixtures designated by American Type Culture Collection +10% FCS (Invitrogen Corporation, Life Technologies division), in a 5% CO2-95% humidity incubator at 37° C. T-47D and ZR-75-1 cells were maintained at a cell density between 30 and 80% confluency at a cell density of 0.1 to 0.6×10^6 cells/ml. Cells were harvested at 600×g and resuspended at 0.65×10^6 cells/ml into appropriate media +10% FCS. An aliquot of 45 μl of cells was added to a well of a 96-well microtiter plate containing 5 μl of a 10% DMSO in RPMI-1640 media solution containing 0.16 to 100 μM of 5-chloro-3-methyl-indole-2-carboxylic acid (4-nitrobenzylidene)-hydrazide (Compound A) or other test compound (0.016 to 10 μM final). An aliquot of 45 μl of cells was added to a well of a 96-well microtiter plate containing 5 μl of a 10% DMSO in RPMI-1640 media solution without test compound as the control sample. The samples were mixed by agitation and then incubated at 37° C. for 24 h in a 5% CO2-95% humidity incubator. After incubation, the samples were removed from the incubator and 50 μl of a solution containing 20 μM of N-(Ac-DEVD)-N′-ethoxycarbonyl-R110 fluorogenic substrate (Cytovia, Inc.; WO99/18856), 20% sucrose (Sigma), 20 mM DTT (Sigma), 200 mM NaCl (Sigma), 40 mM Na PIPES buffer pH 7.2 (Sigma), and 500 μg/ml lysolecithin (Calbiochem) was added. The samples were mixed by agitation and incubated at room temperature. Using a fluorescent plate reader (Model 1420 Wallac Instruments), an initial reading (T=0) was made approximately 1-2 min after addition of the substrate solution, employing excitation at 485 nm and emission at 530 nm, to determine the background fluorescence of the control sample. After the 3 h incubation, the samples were read for fluorescence as above (T=3 h).
The Relative Fluorescence Unit values (RFU) were used to calculate the sample readings as follows: RFU(T=3h)−Control RFU(T=0)=Net RFU(T=3h)
The activity of caspase cascade activation was determined by the ratio of the net RFU value for 5-chloro-3-methyl-indole-2-carboxylic acid (4-nitrobenzylidene)-hydrazide (Compound A) or other test compound to that of control samples. The EC50 (nM) was determined by a sigmoidal dose-response calculation (Prism 2.0, GraphPad Software Inc.).

“Also recorded” adds a separate entry of the source. Like-named read-outs stand apart in the source and are kept apart here.

As usually defined, the EC50 is the concentration needed to bring the measured effect to its halfway point. One may read the IC50 as the point on the concentration scale where inhibition reaches its midpoint. With `Cc1c(C(=O)NN=Cc2ccc([N+](=O)[O-])cc2)[nH]c2ccc(Cl)cc12` [Compound A, 5-chloro-3-methyl-indole-2-carboxylic acid (4-nitrobenzylidene)-hydrazide], in test [1], the “Nuclear morphology (nuclear fragmentation)” value was “shrunken and fragmented nuclei”. Further, the EC50 in test [2] is roughly 800 nM; in test [5] (Homo sapiens, T47D) it was 2000 nM. The 50% inhibitory concentration (IC50) in test [3] (48 hr treatment, read-out: IC50 of colony forming ability) is roughly 3000 nM; in test [3] (48 h treatment, FIG. 4 legend, read-out: IC50 of colony formation) it was roughly 3000 nM. In addition, the “G2/M DNA content (M4) of cells” value in test [4] is “increase in G2/M DNA content; also recorded: an increase in the G2/M (M4)”. The “Sub-diploid DNA content of cells (M1)” value in test [4] (control 2%) is reported as 25%. In test [5] (3 h substrate reading), the “Caspase activity Ratio (net RFU of test compound to control)” value is reported as 6.9.

The record behind these values is US6747052B2, “Substituted indole-2-carboxylic acid benzylidene-hydrazides and analogs as activators of caspases and inducers of apoptosis and the use thereof” (Cytovia, Inc., priority 2000, dated 2004).
